Experimental data from patent US7008922B2, “H-Y antigen” (Rijksuniversiteit te Leiden, priority 1995, dated 2006).
Where a SMILES comes first, the peptide text is derived from it.

Columns and labels:
purified HLA-B7 = purified HLA-B7 (Homo sapiens, UniProt P01889); experiment: Inhibition of binding of iodinated standard peptide to purified HLA-B7; details: iodinated endogenous B7 peptide […]
Procedure: Binding of synthetic peptides to purified HLA-B7. HPLC-purified test peptides were assayed for the ability to inhibit the binding of the iodinated endogenous B7 peptide […] (SEQ ID NO:4) to purified HLA-B7 as previously described (40). (♦), SMCY peptide […] (SEQ ID NO:1); (▪) SMCX peptide […] (SEQ ID NO:3); (Δ), […] (SEQ ID NO:5), an endogenous peptide bound to HLA-B7; (x) […] (SEQ ID NO.6), an endogenous peptide bound to HLA-A2.1 as the negative control.
The corresponding peptide derived from the sequence of the X chromosomal homolog, SMCX, has substitutions of A for S at position 3 and Q for R at position 8. […] Thus, the significant difference in the ability of the SMCY and SMCX peptides to sensitize targets for T cell recognition is almost entirely due to the fine specificity of the T cell receptor, rather than to differences in MHC binding affinities. The SMCX peptide is also present in naturally processed peptide extracts of HLA-B7, although its abundance is only 25% of that of the SMCY peptide (33). Based on all of this information, it is concluded that the peptide epitopes representing the HLA-B7 restricted H-Y antigen is derived from the protein encoded by SMCY, which is also true for the HLA-A2.1 recognized peptide, also encoded by SMCY.

T2-B7 cells = experiment: H-Y epitope reconstitution, 51Cr release assay with HLA-B7-restricted H-Y specific CTL clone 5W4; assay type: cell-based, human; details: T2-B7 cells sensitized with synthetic peptide, effector to target ratio 10 to 1, read-out: peptide concentration at which half-maximal lysis was achieved
From the text: Reconstitution of the H-Y epitope with HPLC fractionated peptides extracted from HLA-B7 molecules. (A) HLA-B7 molecules were immunoaffinity purified from […] H-Y positive JY cells. Peptides were eluted from B7 molecules with 10% acetic acid, pH 2.2, filtered through a 10 kD cut-off filter and fractionated on a C18 reverse phase column. Buffer A was 0.1% heptafluorobutyric acid (HFBA); buffer B was 0.1% HFBA in acetonitrile. The gradient consisted of 100% buffer A (0–20 mm), 0 to 12% buffer B (20 to 25 mm), and 12 to 50% buffer B (25 to 80 mm) at a flow rate of 200 μl/min. 60 fractions of 200 μl each were collected from 20 to 80 mm. […]
H-Y epitope reconstitution with synthetic peptides. […] Purity was established on an analytical RP column and the quantity of each peptide was confirmed by comparing the area of the peak with that of a standard peptide. […]
To isolate endogenously processed H-Y peptides, HLA-B7 molecules were purified by affinity chromatography from the H-Y positive, B lymphoblastoid cell line, JY (29). […] Although a single active peak of reconstituting activity was also observed from this separation (FIG. 1B, fraction 14, 15 and 16), it still contained more than 100 distinct peptide species, as assessed by electrospray ionization tandem mass spectrometry. […]

[1] = system: HLA-A2.1 restricted H-Y specific T cell clones; experiment: H-Y reconstitution assay with HLA-A2.1 restricted H-Y specific T cell clones R416 and 1R35; assay type: cell-based, human
From the text: HLA-A2 molecules were immunoaffinity purified from 10^10 DM cells. Peptides were eluted according to the methodology as described in legend to FIG. 1.
In the same manner as described above for the HLA-B7 restricted T-cell clone, the peptide recognized by two HLA-A2.1 T-cell clones was identified. In short the HLA-A2.1 restricted H-Y specific T cell clone R416 recognizes HPLC fraction 34, the HLA-A2.1 restricted H-Y specific T clone 1R35 recognizes HPLC fractions 36 and 39 (FIG. 6).

Chain of purified HLA-B7 (P01889 25-362): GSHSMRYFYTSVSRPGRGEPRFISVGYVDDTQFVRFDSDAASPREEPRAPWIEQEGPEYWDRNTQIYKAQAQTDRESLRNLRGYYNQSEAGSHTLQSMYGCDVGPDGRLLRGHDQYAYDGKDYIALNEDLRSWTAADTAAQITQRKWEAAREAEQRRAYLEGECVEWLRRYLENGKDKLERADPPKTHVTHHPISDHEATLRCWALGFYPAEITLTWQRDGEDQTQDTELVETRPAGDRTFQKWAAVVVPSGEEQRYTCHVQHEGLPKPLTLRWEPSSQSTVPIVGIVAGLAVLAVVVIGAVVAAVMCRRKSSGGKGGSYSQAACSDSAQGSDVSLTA
Chain of purified HLA-B7 (P61769 21-119 partner): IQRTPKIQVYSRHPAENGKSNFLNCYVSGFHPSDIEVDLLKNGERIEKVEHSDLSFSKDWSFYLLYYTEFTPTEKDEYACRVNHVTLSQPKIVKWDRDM

| Molecule | IC50 (purified HLA-B7) [nM] | EC50 (T2-B7 cells) [nM] | recognition by HLA-A2.1 restricted H-Y specific T cell clones [1] |
| --- | --- | --- | --- |
| CC(C)C[C@H](NC(=O)[C@H](CCC(=O)O)NC(=O)[C@H](C)NC(=O)[C@H](CCC(N)=O)NC(=O)[C@H](C)NC(=O)[C@H](CCCCN)NC(=O)[C@H](CC(=O)O)NC(=O)[C@@H](NC(=O)[C@H](C)NC(=O)[C@@H]1CCCN1C(=O)[C@@H](N)CO)C(C)C)C(=O)O [SMCX peptide, reference compound] (H-SPAVDKAQAEL-OH) | 140 |  |  |
| CC(C)C[C@H](NC(=O)[C@H](CCC(=O)O)NC(=O)[C@H](C)NC(=O)[C@H](CCCNC(=N)N)NC(=O)[C@H](C)NC(=O)[C@H](CCCCN)NC(=O)[C@H](CC(=O)O)NC(=O)[C@@H](NC(=O)[C@H](CO)NC(=O)[C@@H]1CCCN1C(=O)[C@@H](N)CO)C(C)C)C(=O)O [SMCY peptide] (H-SPSVDKARAEL-OH; N-terminus and C-terminus assumed) | 34 | 0.01 |  |
| FIDSYICQV (listed as Homo sapiens) [SMCY-encoded peptide recognized by HLA-A2.1 restricted H-Y specific T cell clones] |  |  | recognize |
